Earlier results as cited in patent US20250049595A1, “ZOTAROLIMUS-ROSUVASTATIN ELUTING BIODEGRADABLE STENT” (priority 2023, published 2025).

Settings: targeted by typical daily dose between 5 and 40 mg

## CC(C)c1nc(N(C)S(C)(=O)=O)nc(-c2ccc(F)cc2)c1/C=C/[C@@H](O)C[C@@H](O)CC(=O)O [Rosuvastatin]
  plasma concentration: 0.5 ng/mL
